Biological target: T1, 6-phosphogluconate dehydrogenase (6-PGD) (Homo sapiens, UniProt P52209)
T1 construct: native enzyme purified from human erythrocytes
T1 sequence (P52209 1-483): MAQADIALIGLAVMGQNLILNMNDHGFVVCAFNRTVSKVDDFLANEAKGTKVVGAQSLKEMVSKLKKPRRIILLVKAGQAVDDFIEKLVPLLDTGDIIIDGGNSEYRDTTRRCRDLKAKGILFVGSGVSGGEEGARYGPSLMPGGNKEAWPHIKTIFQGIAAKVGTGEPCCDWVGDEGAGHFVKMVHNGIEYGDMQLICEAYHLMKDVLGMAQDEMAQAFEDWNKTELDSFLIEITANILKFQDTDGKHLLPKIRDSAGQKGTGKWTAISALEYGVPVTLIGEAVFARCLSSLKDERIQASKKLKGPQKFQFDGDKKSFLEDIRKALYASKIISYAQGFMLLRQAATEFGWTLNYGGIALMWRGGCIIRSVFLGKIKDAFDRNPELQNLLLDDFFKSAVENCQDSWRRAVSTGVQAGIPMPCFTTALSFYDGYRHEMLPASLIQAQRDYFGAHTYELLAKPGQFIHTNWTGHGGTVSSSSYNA
Assay: enzyme activity assay (NADPH absorbance at […] nm) on 6-PGD purified from human erythrocytes; also A549 lysate assay
Assay type: biochemical
Conditions: read-out: % reduction of activity at 200 μg/mL

Row | SMILES | inhibition at 200 µg/mL [%]
1 | COc1cc([C@H]2OC[C@H]3[C@@H]2CO[C@@H]3c2cc(OC)c(O)c(OC)c2)cc(OC)c1O [syringaresinol] | 76.3
2 | COc1cc([C@H]2Oc3c(OC)cc4ccc(=O)oc4c3O[C@@H]2CO)ccc1O [cleomiscosin A] | 70
